Assay [1] concerns RKO (RKOp27) human colon adenocarcinoma cells. The assay is described as follows: Alamar Blue cell viability assay, anti-proliferative/cytotoxic activity on proliferating RKOp27 cells. Particulars: absence of Ponasterone A, 72 hours incubation, read-out: IC50 RKO p27 proliferating. The format is cell-based. The method, boiled down: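 RKOp27 subclone of RKO cells, 4000/well in DMEM with 10% FCS, was treated 24 h after seeding with semi-log compound dilutions in quadruplicate for 72 h at 37 °C, 5% CO2. Alamar Blue fluorescence (ex 544/em 590 nm) was read as % viability of untreated cells, and IC50 was taken from concentration-effect curves.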

Assay [2] has as its system RKO colon adenocarcinoma cells (RKOp27) arrested by expression of ectopic p27Kip1. The assay is described as follows: Alamar Blue cell viability assay on RKOp27 cells arrested by Ponasterone A-induced p27Kip1 (cell cycle specific mode of action). The format is cell-based. Particulars: Homo sapiens, RKOp27, 72 h, cells arrested by p27Kip1 induced with 10 μM Ponasterone A, 72 hours incubation, read-out: IC50 RKO p27 arrested. The gist of the method:
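Viability measured by Alamar Blue fluorescence (ex 544, em 590 nm) after 72 h, 37 °C compound exposure in quadruplicate, normalized to untreated cells as 100%. Cells were p27Kip1-arrested RKOp27, induced with 10 μM Ponasterone A at seeding; compound added 24 h later.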

One may read the IC50 as the midpoint of a concentration-inhibition curve. As for `COCCC(=O)N1CCc2c(sc(NC(=O)/C=C/c3cccnc3)c2C#N)C1` [Example 195, (E)-N-[3-Cyano-6-(3-methoxy-propanoyl)-4,5,6,7-tetrahydro-thieno[2,3-c]pyridin-2-yl]-3-pyridin-3-yl-acrylamide], the IC50 is at most 2000 nM in assay [1] and at least 100 µM in assay [2].
For `N#Cc1c(NC(=O)/C=C/c2ccccc2)sc2c1CCN(C(=O)CCCO)C2` [Example 192, (E)-N-[3-Cyano-6-(4-hydroxy-butanoyl)-4,5,6,7-tetrahydro-thieno[2,3-c]pyridin-2-yl]-3-phenyl-acrylamide], the IC50 in assay [1] was at most 2000 nM; in assay [2], at least 100 µM.
On the same counts, the results for `N#Cc1c(NC(=O)/C=C/c2ccccc2)sc2c1CCN(C(=O)OCCN1CCOCC1)C2` [Example 112, 3-Cyano-2-((E)-3-phenyl-allanoylamino)-4,7-dihydro-5H-thieno[2,3-c]pyridine-6-carboxylic acid 2-morpholin-4-yl-ethyl ester] are at most 2000 nM and at least 100 µM.
As to `N#Cc1c(NC(=O)/C=C/c2ccccc2)sc2c1CCN(C(=O)CCc1cccnc1)C2` [Example 185, (E)-N-[3-Cyano-6-(3-pyridin-3-yl-propanoyl)-4,5,6,7-tetrahydro-thieno[2,3-c]pyridin-2-yl]-3-phenyl-acrylamide], the IC50 is at most 2000 nM in assay [1] and at least 100 µM in assay [2].
In the same order, the values of `CCOC(=O)N1CCc2c(sc(NC(=O)/C=C/c3ccccc3OC)c2C#N)C1` [Example 24, 3-Cyano-2-[(E)-3-(2-methoxy-phenyl)-allanoylamino]-4,7-dihydro-5H-thieno[2,3-c]pyridine-6-carboxylic acid ethyl ester] are at most 2000 nM and over 100 µM.
On the same counts, the results for `COc1ccc(OC(=O)N2CCc3c(sc(NC(=O)/C=C/c4cccnc4)c3C#N)C2)cc1` [Example 143, 3-Cyano-2-((E)-3-pyridin-3-yl-allanoylamino)-4,7-dihydro-5H-thieno[2,3-c]pyridine-6-carboxylic acid 4-methoxy-phenyl ester] are at most 2000 nM and at least 100 µM.
For `N#Cc1c(NC(=O)/C=C/c2cccnc2)sc2c1CCN(C(=O)OCCc1cccnc1)C2` [Example 159, 3-Cyano-2-((E)-3-pyridin-3-yl-allanoylamino)-4,7-dihydro-5H-thieno[2,3-c]pyridine-6-carboxylic acid 2-pyridin-3-yl-ethyl ester], the figures for the IC50 in assay [1] and in assay [2] were at most 2000 nM and at least 100 µM, respectively.
In the case of `CCOC(=O)N1CCc2c(sc(NC(=O)/C=C/c3ccccc3Cl)c2C#N)C1` [Example 4, N-(6-Ethoxycarbonyl-3-cyano-4,5,6,7-tetrahydro-thieno[2,3-c]pyridin-2-yl)-3-(2-chlorophenyl)-acrylamide], the half-inhibitory concentration (IC50) was at most 2000 nM in assay [1] and over 100 µM in assay [2].
On the same counts, the results for `CCOC(=O)N1CCc2c(sc(NC(=O)/C=C/c3ccc(C)o3)c2C#N)C1` [Example 74, 3-Cyano-2-[(E)-3-(5-methyl-furan-2-yl)-allanoylamino]-4,7-dihydro-5H-thieno[2,3-c]pyridin-6-carboxylic acid ethyl ester] are at most 2000 nM and at least 100 µM.
For the compound `CCOC(=O)N1CCc2c(sc(NC(=O)/C=C/c3ccccc3C(F)(F)F)c2C#N)C1` [Example 23, 3-Cyano-2-[(E)-3-(2-trifluoromethyl-phenyl)-allanoylamino]-4,7-dihydro-5H-thieno[2,3-c]pyridine-6-carboxylic acid ethyl ester], the figures for the IC50 in assay [1] and in assay [2] were at most 2000 nM and over 100 µM, respectively.
Consider `CCOC(=O)N1CCc2c(sc(NC(=O)/C=C/c3ccccc3N3CCOCC3)c2C#N)C1` [Example 88, 3-Cyano-2-[(E)-3-(2-morpholin-4-yl-phenyl)-allanoylamino]-4,7-dihydro-5H-thieno[2,3-c]pyridine-6-carboxylic acid ethyl ester], for which the 50% inhibitory concentration (IC50) in assay [1] was at most 500 nM; in assay [2], at least 50 µM.
Take `N#Cc1c(NC(=O)/C=C/c2cccnc2)sc2c1CCN(C(=O)OCc1ccccn1)C2` [Example 149, 3-Cyano-2-((E)-3-pyridin-3-yl-allanoylamino)-4,7-dihydro-5H-thieno[2,3-c]pyridine-6-carboxylic acid pyridin-2-ylmethyl ester]: the concentration for half-maximal inhibition (IC50) is at most 2000 nM in assay [1] and at least 100 µM in assay [2].
On the same counts, the results for `N#Cc1c(NC(=O)/C=C/c2ccco2)sc2c1CCN(C(=O)CCc1cccnc1)C2` [Example 229, (E)-N-[3-Cyano-6-(3-pyridin-3-yl-propanoyl)-4,5,6,7-tetrahydro-thieno[2,3-c]pyridin-2-yl]-3-furan-2-yl-acrylamide] are at most 2000 nM and at least 100 µM.
In the same order, the values of `COc1ccc(CCOC(=O)N2CCc3c(sc(NC(=O)/C=C/c4cccnc4)c3C#N)C2)cc1` [Example 146, 3-Cyano-2-((E)-3-pyridin-3-yl-allanoylamino)-4,7-dihydro-5H-thieno[2,3-c]pyridine-6-carboxylic acid 2-(4-methoxy-phenyl)-ethyl ester] are at most 2000 nM and at least 100 µM.
As for `COC(=O)CCCC(=O)N1CCc2c(sc(NC(=O)/C=C/c3ccccc3)c2C#N)C1` [Example 186, 5-[3-Cyano-2-((E)-3-phenyl-allanoylamino)-4,7-dihydro-5H-thieno[2,3-c]pyridin-6-yl]-5-oxo-pentanoic acid methyl ester], the results for the IC50 in assay [1] and in assay [2] were at most 2000 nM and at least 100 µM, respectively.
Turning to `CCCC(=O)N1CCc2c(sc(NC(=O)/C=C/c3ccccc3)c2C#N)C1` [Example 33, (E)-N-(6-Butyryl-3-cyano-4,5,6,7-tetrahydro-thieno[2,3-c]pyridin-2-yl)-3-phenyl-acrylamide], the results for the half-inhibitory concentration (IC50) in assay [1] and in assay [2] were at most 2000 nM and over 100 µM, respectively.
On the same counts, the results for `CCOC(=O)N1CCc2c(sc(NC(=O)/C=C/c3nn(C)cc3Cl)c2C#N)C1` [Example 90, 2-[(E)-3-(4-Chloro-1-methyl-1H-pyrazol-3-yl)-allanoylamino]-3-cyano-4,7-dihydro-5H-thieno[2,3-c]pyridine-6-carboxylic acid ethyl ester] are at most 2000 nM and at least 100 µM.
In the same order, the values of `CCOC(=O)N1CCc2c(sc(NC(=O)/C=C/c3cccc(OC)c3OC)c2C#N)C1` [Example 20, 3-Cyano-2-[(E)-3-(2,3-dimethoxy-phenyl)-allanoylamino]-4,7-dihydro-5H-thieno[2,3-c]pyridine-6-carboxylic acid ethyl ester] are at most 2000 nM and over 100 µM.
On the same counts, the results for `CCOC(=O)N1CCc2c(sc(NC(=O)/C=C/c3cccc(Cl)c3)c2C#N)C1` [Example 13, 2-[(E)-3-(3-Chloro-phenyl)-allanoylamino]-3-cyano-4,7-dihydro-5H-thieno[2,3-c]pyridine-6-carboxylic acid ethyl ester] are at most 2000 nM and over 100 µM.
Turning to `CCOC(=O)N1CCc2c(sc(NC(=O)/C=C/c3cccs3)c2C#N)C1` [Example 8, 3-Cyano-2-((E)-3-thiophen-2-yl-allanoylamino)-4,7-dihydro-5H-thieno[2,3-c]pyridine-6-carboxylic acid ethyl ester], the half-inhibitory concentration (IC50) in assay [1] was at most 2000 nM; in assay [2] it was over 100 µM.
In the same order, the values of `CCOC(=O)N1CCc2c(sc(NC(=O)/C=C/c3ccc(F)cc3C)c2C#N)C1` [Example 89, 3-Cyano-2-[(E)-3-(4-fluoro-2-methyl-phenyl)-allanoylamino]-4,7-dihydro-5H-thieno[2,3-c]pyridine-6-carboxylic acid ethyl ester] are at most 2000 nM and at least 100 µM.
For `CCOC(=O)N1CCc2c(sc(NC(=O)/C=C/c3ccc(C)s3)c2C#N)C1` [Example 76, 3-Cyano-2-[(E)-3-(5-methyl-thiophen-2-yl)-allanoylamino]-4,7-dihydro-5H-thieno[2,3-c]pyridine-6-carboxylic acid ethyl ester], the values for the half-maximal inhibitory concentration (IC50) in assay [1] and in assay [2] were at most 2000 nM and at least 100 µM, respectively.
On the same counts, the results for `N#Cc1c(NC(=O)/C=C/c2ccco2)sc2c1CCN(C(=O)OCc1ccccn1)C2` [Example 241, 3-Cyano-2-((E)-3-furan-2-yl-allanoylamino)-4,7-dihydro-5H-thieno[2,3-c]pyridine-6-carboxylic acid pyridin-2-ylmethyl ester] are at most 2000 nM and at least 100 µM.
In the case of `N#Cc1c(NC(=O)/C=C/c2ccccc2)sc2c1CCN(C(=O)OCC(O)CO)C2` (stereo not drawn) [Example 128, 3-Cyano-2-((E)-3-phenyl-allanoylamino)-4,7-dihydro-5H-thieno[2,3-c]pyridine-6-carboxylic acid 2,3-dihydroxy-propyl ester], the IC50 is at most 2000 nM in assay [1] and at least 100 µM in assay [2].
In the same order, the values of `CCOc1ccccc1/C=C/C(=O)Nc1sc2c(c1C#N)CCN(C(=O)OCCOC)C2` [Example 235, 3-Cyano-2-[(E)-3-(2-ethoxy-phenyl)-allanoylamino]-4,7-dihydro-5H-thieno[2,3-c]pyridine-6-carboxylic acid 2-methoxy-ethyl ester] are at most 2000 nM and at least 100 µM.
Regarding `CCOc1ccccc1/C=C/C(=O)Nc1sc2c(c1C#N)CCN(C(=O)Cc1ccccn1)C2` [Example 218, (E)-N-[3-Cyano-6-(2-pyridin-2-yl-ethanoyl)-4,5,6,7-tetrahydro-thieno[2,3-c]pyridin-2-yl]-3-(2-ethoxy-phenyl)-acrylamide], the 50% inhibitory concentration (IC50) was at most 2000 nM in assay [1] and at least 100 µM in assay [2].
In the same order, the values of `CC(C)(C)OC(=O)N1CCc2c(sc(NC(=O)/C=C/c3ccoc3)c2C#N)C1` [Example 55, 3-Cyano-2-((E)-3-furan-3-yl-allanoylamino)-4,7-dihydro-5H-thieno[2,3-c]pyridine-6-carboxylic acid tert-butyl ester] are at most 2000 nM and at least 100 µM.

The record behind these values is patent US7723523B2, “Tetrahydropyridothiophenes” (4SC AG, priority 2004, dated 2010).
